Test results published in ChEMBL document CHEMBL5291721, “A preclinical secondary pharmacology resource illuminates target-adverse drug reaction associations of marketed drugs” (Nat Commun, 2023).

Experiments:
[1] = molecular target: T1, Thromboxane A2 receptor (Homo sapiens, UniProt P21731)
T1 sequence (P21731 whole entry): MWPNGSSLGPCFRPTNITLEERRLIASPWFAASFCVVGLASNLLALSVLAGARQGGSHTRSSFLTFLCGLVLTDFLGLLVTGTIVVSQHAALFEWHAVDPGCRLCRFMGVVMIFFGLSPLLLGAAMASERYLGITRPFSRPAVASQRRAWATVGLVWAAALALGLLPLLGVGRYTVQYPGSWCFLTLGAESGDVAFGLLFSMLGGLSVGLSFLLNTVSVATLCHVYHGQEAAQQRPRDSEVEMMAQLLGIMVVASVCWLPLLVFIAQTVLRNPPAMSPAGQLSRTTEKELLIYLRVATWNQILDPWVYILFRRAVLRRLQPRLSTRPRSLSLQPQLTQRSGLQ

[2] = molecular target: T2, Equilibrative nucleoside transporter 1 (Homo sapiens, UniProt Q99808)
T2 sequence (Q99808 whole entry): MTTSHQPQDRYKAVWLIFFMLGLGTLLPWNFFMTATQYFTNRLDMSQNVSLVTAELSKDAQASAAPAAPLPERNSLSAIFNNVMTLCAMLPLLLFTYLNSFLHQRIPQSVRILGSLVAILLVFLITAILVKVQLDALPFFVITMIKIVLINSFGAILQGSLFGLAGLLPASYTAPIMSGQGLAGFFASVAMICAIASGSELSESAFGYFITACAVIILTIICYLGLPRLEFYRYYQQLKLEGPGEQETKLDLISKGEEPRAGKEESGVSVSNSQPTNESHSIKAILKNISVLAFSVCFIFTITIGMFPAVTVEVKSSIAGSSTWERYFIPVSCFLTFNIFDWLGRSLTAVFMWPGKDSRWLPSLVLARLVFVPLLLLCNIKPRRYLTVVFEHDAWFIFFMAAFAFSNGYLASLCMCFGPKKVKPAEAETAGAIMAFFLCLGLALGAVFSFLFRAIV

[3] = molecular target: Gamma-aminobutyric acid receptor subunit alpha-1 (Rattus norvegicus, UniProt P62813); format: functional
Gamma-aminobutyric acid receptor subunit alpha-1, sequence (P62813 whole entry): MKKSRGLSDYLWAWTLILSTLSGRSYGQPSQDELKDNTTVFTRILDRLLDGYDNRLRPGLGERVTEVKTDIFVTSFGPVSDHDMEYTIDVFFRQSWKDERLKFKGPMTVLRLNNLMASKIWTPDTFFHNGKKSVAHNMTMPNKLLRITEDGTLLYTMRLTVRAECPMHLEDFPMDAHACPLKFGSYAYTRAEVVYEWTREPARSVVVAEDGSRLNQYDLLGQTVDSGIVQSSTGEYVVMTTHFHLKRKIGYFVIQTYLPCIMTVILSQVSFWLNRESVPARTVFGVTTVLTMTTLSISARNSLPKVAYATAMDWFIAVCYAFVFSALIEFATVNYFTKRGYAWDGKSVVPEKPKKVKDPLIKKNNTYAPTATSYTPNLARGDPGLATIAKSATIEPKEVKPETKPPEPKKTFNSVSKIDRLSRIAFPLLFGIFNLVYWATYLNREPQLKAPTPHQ

[4] = molecular target: T3, Progesterone receptor (Homo sapiens, UniProt P06401); format: functional
T3 sequence (P06401 whole entry): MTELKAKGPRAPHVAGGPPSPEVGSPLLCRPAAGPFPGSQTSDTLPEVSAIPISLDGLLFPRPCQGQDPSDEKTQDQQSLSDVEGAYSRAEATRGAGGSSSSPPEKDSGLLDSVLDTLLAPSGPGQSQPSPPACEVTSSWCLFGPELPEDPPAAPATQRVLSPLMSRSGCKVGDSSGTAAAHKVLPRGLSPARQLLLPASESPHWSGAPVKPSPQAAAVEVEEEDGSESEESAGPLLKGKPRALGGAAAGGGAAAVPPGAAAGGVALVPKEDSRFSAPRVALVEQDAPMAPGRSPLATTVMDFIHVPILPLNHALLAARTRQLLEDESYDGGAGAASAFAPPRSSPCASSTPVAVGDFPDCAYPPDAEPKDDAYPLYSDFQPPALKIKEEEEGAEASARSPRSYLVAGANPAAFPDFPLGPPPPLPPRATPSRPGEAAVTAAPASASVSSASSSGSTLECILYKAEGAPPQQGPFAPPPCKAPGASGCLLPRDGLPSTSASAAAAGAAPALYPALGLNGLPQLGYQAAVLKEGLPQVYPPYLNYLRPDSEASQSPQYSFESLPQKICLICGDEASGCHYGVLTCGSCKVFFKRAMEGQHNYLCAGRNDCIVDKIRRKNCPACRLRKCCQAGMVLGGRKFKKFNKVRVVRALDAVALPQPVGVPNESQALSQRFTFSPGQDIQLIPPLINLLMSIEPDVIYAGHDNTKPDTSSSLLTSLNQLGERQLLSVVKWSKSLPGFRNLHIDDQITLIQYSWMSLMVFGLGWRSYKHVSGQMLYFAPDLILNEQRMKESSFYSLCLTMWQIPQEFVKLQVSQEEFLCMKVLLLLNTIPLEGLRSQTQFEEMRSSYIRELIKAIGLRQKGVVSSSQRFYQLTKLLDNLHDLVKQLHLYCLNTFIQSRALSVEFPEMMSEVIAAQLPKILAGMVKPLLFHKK

[5] = molecular target: T4, Glucocorticoid receptor (Homo sapiens, UniProt P04150)
T4 sequence (P04150 whole entry): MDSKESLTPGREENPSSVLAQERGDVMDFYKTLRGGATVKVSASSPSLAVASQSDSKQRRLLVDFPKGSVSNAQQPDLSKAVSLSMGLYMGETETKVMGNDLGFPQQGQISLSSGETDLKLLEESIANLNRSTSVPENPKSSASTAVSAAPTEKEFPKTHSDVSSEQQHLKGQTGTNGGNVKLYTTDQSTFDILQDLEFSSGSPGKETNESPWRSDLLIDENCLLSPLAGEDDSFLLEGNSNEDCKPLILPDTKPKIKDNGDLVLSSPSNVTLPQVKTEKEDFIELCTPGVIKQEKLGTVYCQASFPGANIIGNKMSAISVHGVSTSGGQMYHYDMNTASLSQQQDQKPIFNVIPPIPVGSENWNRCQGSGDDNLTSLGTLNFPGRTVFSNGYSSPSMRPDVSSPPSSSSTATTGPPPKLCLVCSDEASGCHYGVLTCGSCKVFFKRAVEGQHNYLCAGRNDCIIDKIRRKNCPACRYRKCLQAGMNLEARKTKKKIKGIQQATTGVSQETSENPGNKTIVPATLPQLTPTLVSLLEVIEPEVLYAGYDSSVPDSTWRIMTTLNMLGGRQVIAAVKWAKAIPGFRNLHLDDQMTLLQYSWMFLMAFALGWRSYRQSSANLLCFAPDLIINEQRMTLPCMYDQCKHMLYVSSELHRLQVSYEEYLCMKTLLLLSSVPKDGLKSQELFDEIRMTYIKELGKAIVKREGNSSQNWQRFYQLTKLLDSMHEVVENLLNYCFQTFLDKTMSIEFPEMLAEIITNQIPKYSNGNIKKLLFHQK

[6] = molecular target: Vasopressin V1a receptor (Homo sapiens, UniProt P37288)
Vasopressin V1a receptor, sequence (P37288 whole entry): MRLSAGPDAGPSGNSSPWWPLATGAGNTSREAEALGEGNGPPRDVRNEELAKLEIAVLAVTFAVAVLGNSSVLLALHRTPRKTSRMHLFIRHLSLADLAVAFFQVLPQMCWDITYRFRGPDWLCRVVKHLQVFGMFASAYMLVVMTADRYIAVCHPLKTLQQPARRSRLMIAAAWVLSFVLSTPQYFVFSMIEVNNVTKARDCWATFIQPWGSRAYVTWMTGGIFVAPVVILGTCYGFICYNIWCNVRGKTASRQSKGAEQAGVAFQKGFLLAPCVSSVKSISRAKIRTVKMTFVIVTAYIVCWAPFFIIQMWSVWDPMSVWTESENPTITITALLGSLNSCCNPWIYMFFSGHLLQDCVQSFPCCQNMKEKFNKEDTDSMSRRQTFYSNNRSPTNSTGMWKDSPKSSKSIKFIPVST

[7] = molecular target: Cannabinoid receptor 1 (Homo sapiens, UniProt P21554)
Cannabinoid receptor 1, sequence (P21554 whole entry): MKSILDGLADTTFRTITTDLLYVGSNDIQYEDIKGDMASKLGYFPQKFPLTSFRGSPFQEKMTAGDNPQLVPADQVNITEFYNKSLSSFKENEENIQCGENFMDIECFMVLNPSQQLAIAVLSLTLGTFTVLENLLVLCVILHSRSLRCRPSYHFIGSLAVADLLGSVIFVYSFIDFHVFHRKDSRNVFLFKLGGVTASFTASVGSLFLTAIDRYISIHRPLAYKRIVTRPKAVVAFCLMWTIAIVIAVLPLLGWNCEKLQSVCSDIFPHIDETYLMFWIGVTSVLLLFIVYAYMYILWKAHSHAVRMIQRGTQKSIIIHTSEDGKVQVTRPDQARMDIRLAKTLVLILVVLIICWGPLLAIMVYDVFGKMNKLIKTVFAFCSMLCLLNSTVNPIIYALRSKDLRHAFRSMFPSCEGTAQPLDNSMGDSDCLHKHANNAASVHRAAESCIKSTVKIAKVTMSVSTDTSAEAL

[8] = molecular target: Melanocortin receptor 4 (Homo sapiens, UniProt P32245)
Melanocortin receptor 4, sequence (P32245 whole entry): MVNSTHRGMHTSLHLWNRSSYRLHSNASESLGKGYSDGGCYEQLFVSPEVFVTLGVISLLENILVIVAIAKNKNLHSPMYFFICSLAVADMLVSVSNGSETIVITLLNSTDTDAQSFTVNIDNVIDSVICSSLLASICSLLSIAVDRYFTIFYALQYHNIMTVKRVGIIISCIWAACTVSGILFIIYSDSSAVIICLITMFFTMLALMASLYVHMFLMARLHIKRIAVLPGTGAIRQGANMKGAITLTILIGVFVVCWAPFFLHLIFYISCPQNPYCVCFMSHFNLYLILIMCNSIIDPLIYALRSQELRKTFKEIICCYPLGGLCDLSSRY
Also: assay procedure not described here.

Row | SMILES | AC50 [1] | AC50 [2] | AC50 [3] | AC50 [4] | AC50 [5] | AC50 [6] | AC50 [7] | AC50 [8]
1 | C[N+](C)(C)CCOP(=O)([O-])OC[C@H](O)CO | > 30 µM | > 30 µM | > 30 µM | > 30 µM | > 30 µM |  |  | 
2 | CN(C)C/C=C/C(=O)Nc1cc2c(Nc3ccc(F)c(Cl)c3)ncnc2cc1O[C@H]1CCOC1 [AFATINIB] |  | > 30 µM | > 30 µM | > 30 µM | > 30 µM | > 30 µM |  | 
3 | Cc1ccccc1-n1c(CF)nc2ccc(N)cc2c1=O [AFLOQUALONE] | > 30 µM | > 30 µM | > 10 µM | > 30 µM |  | > 30 µM | > 10 µM | > 30 µM
4 | CCC1(c2ccc(N)cc2)CCC(=O)NC1=O (stereo unspecified) [AMINOGLUTETHIMIDE] | > 30 µM | > 30 µM | > 30 µM | > 30 µM | > 30 µM |  |  | 
5 | CC1=C(C(=O)OC(C)C)C(c2cccc([N+](=O)[O-])c2)C(C(=O)OC2CN(C(c3ccccc3)c3ccccc3)C2)=C(N)N1 (stereo unspecified) [AZELNIDIPINE] | > 30 µM | > 30 µM | > 30 µM | > 30 µM | > 30 µM | > 30 µM |  | 
6 | O=C(/C=C/c1cccc(S(=O)(=O)Nc2ccccc2)c1)NO [BELINOSTAT] | > 30 µM | > 30 µM | > 10 µM |  | > 30 µM | > 10 µM | > 10 µM | > 30 µM
7 | CC(Cc1cccc(C(F)(F)F)c1)NCCOC(=O)c1ccccc1 (stereo unspecified) [BENFLUOREX] | > 30 µM |  |  | > 30 µM | > 30 µM | > 30 µM |  | 
8 | O=C(O)COCCN1CCN(C(c2ccccc2)c2ccc(Cl)cc2)CC1 (stereo unspecified) [CETIRIZINE] | > 30 µM | > 30 µM |  |  |  | > 10 µM | > 10 µM | > 30 µM
9 | NC[C@H]1CC[C@H](C(=O)Oc2ccc(CCC(=O)O)cc2)CC1 [CETRAXATE] |  |  | > 30 µM |  |  |  |  | 
10 | CC(=O)O[C@]1(C(C)=O)CC[C@H]2[C@@H]3C=C(Cl)C4=CC(=O)[C@@H]5C[C@@H]5[C@]4(C)[C@H]3CC[C@@]21C [CYPROTERONE ACETATE] | > 30 µM | > 30 µM | > 10 µM |  |  | > 10 µM | > 10 µM | > 30 µM
11 | CN[C@]1(c2ccccc2Cl)CCCCC1=O [ESKETAMINE] | > 30 µM | > 30 µM | > 30 µM | > 30 µM | > 30 µM | > 30 µM | > 30 µM | 
12 | C[C@@H]1C[C@H]2[C@@H]3C[C@H](F)C4=CC(=O)C=C[C@]4(C)[C@@]3(F)[C@@H](O)C[C@]2(C)[C@@]1(OC(=O)c1ccco1)C(=O)SCF [FLUTICASONE FUROATE] | > 10 µM | > 10 µM | > 10 µM |  |  | > 10 µM | 16.3 µM | > 10 µM
13 | CNCCc1ccc(OC(=O)C(C)C)c(OC(=O)C(C)C)c1 [IBOPAMINE] | > 30 µM | > 30 µM | > 30 µM | > 30 µM | > 30 µM | > 30 µM |  | 
14 | CCOC(=O)C1=C(C)NC(C)=C(C(=O)OCC)C1c1ccccc1/C=C/C(=O)OC(C)(C)C [LACIDIPINE] | > 30 µM | > 30 µM | > 30 µM | > 30 µM | > 30 µM |  |  | 
15 | COC(=O)C1=C(C)NC(C)=C(C(=O)OCCN2CCN(C(c3ccccc3)c3ccccc3)CC2)C1c1cccc([N+](=O)[O-])c1 (stereo unspecified) [MANIDIPINE 6300] | > 30 µM | > 30 µM | > 30 µM | > 30 µM | > 30 µM | > 30 µM |  | 
16 | CN(Cc1cnc2nc(N)nc(N)c2n1)c1ccc(C(=O)N[C@@H](CCC(=O)O)C(=O)O)cc1 [METHOTREXATE] | > 30 µM | > 30 µM | > 10 µM |  |  | > 30 µM | > 10 µM | > 30 µM
17 | OC[C@H]1O[C@@H](n2cnc3c2NC=NC[C@H]3O)C[C@@H]1O [PENTOSTATIN] |  | > 30 µM | > 30 µM | > 30 µM | > 30 µM | > 30 µM |  | 
18 | Cc1cccc(C)c1NC(=O)CC12CCCN1CCC2 [PILSICAINIDE] | > 30 µM | > 30 µM | > 30 µM | > 30 µM | > 30 µM | > 30 µM |  | 
19 | CC(C)c1cccc(C(C)C)c1O [PROPOFOL] |  | > 30 µM |  | > 30 µM |  |  |  | 
20 | CN[C@@H](C)[C@@H](O)c1ccccc1 [PSEUDOEPHEDRINE] | > 30 µM | > 30 µM | > 10 µM |  | > 30 µM | > 10 µM |  | > 30 µM
21 | CCCN1CC(NS(=O)(=O)N(CC)CC)CC2Cc3c(O)cccc3CC21 (stereo unspecified) [QUINAGOLIDE] | > 30 µM |  | > 30 µM | > 30 µM | > 30 µM | > 30 µM |  | 
22 | C[C@]12CCC(=O)C[C@@H]1CC[C@@H]1[C@@H]2CC[C@]2(C)[C@@H](O)CC[C@@H]12 [STANOLONE] | > 30 µM | > 30 µM | > 30 µM | 0.0396 µM |  |  | > 30 µM | > 30 µM
23 | O=C1OC(OC(=O)c2cccnc2Nc2cccc(C(F)(F)F)c2)c2ccccc21 (stereo unspecified) [TALNIFLUMATE] | > 30 µM | > 30 µM | > 30 µM | > 30 µM | > 30 µM | > 30 µM |  | 
24 | C[C@]12C=CC(=O)C=C1CC[C@@H]1[C@@H]2CC[C@]2(C)OC(=O)CC[C@@H]12 [TESTOLACTONE] | > 10 µM | > 10 µM | > 10 µM | > 10 µM |  | > 10 µM | > 10 µM | > 10 µM
25 | CCOC(=O)c1c(CSc2ccccc2)n(C)c2cc(Br)c(O)c(CN(C)C)c12 [UMIFENOVIR] | > 30 µM | > 30 µM | > 30 µM | > 30 µM | > 30 µM | > 30 µM |  | 
